SMILES strings stand for the structures. Values joined by “and” are separate entries in the source; they are usually repeats but may differ in a detail not shown here. Equal values may be shown once. Read-outs that look alike come from different tables or passages of the source.

A short description of the data set: Rat brain penetration study. In kind it is in vivo, male Han Wistar rats. As to conditions: 1b 5 mg/kg i.v.; for In blood, prodrug 1b / In brain, prodrug 1b / Unbound brain, prodrug 1b / concentration at 5 min / concentration at 15 min / concentration at 30 min / concentration at 60 min: single rats; for In brain, prodrug 1b / Unbound brain, prodrug 1b: listed as prodrug 1b; for concentration at 5 min / concentration at 15 min / concentration at 30 min / concentration at 60 min: intravenous, 5 mg free base/kg. The method, then:
Prodrug 1b was dosed as a bolus solution intravenously at 5 mg free base/kg (dose volume: 1 mL/kg; dose vehicle: 10% DMSO; 60% PEG400; 30% MilliQ H2O) to male Han Wistar rats (n = 12). At 5, 15, 30 and 60 min following intravenous bolus injection of prodrug 1b, […] (n = 3/timepoint) were placed under terminal anaesthesia with isofluorane. A blood sample was taken by cardiac puncture, the […] decapitated and the brain removed. Brain weight was noted and each brain homogenised with two volumes of methanol:water (1:1; 2 mL/g brain). Each blood sample was diluted with distilled water (1:2). Diluted blood and the brain homogenates were then stored frozen until preparation and analysis by UPLC-MS/MS, monitoring for prodrug 1b and production of inhibitor 1. For each rat at each timepoint for 1, the concentration in brain (ng/g) was divided by the concentration in blood (ng/mL) to give a brain:blood ratio. The mean value obtained was quoted.
A rapid and sensitive ultra-performance chromatography/tandem mass spectrometry (UPLC-MS/MS) method was developed and validated for the determination of inhibitor 1 and prodrug 1b (rat only). Chromatographic analysis was conducted on a Waters Acquity™ UPLC system. Chromatographic separation was performed with an Acquity™ UPLC BEH C18 column (50 × 2.1 mm, 1.7 µm, 130Å; Waters Corp.) maintained at 40 °C in a column oven. The mobile phase consisted of water with 0.01% formic acid and ACN with 0.01 % formic acid and it was delivered at a flow rate of 0.6 mL/min under gradient eluent conditions within an analysis cycle time of 3 min. The mass detection was conducted on a Waters Xevo™ TQs mass spectrometer equipped with a ScanWave™ technology. Quantitation of the analyte was performed in electrospray positive ionisation mode (ESI^+) using multiple reaction monitoring. The optimised fragmentation transition was m/z = 270.17 → 196.19 (mouse) or m/z = 270.17 → 223.76 (rat) for inhibitor 1 and m/z = 297.83 → 195.74 for prodrug 1b (rat).
Sample extraction for blood and brain homogenate was by protein precipitation (1:3 or 1:6) using ACN containing suitable internal standard. Extracts were vortexed followed by centrifugation (2800 rpm for 10 min). An aliquot of each supernatant was then diluted two-fold in distilled water ready for analysis by UPLC-MS/MS.
The weighted 1/x^2 calibration line was linear in the dynamic range of 1–5000 ng/mL for inhibitor 1 and 1–1000 ng/mL for prodrug 1b with a correlation coefficient (r^2) > 0.99 (inhibitor 1) or 0.98 (prodrug 1b). The quality control samples (QC) were prepared by using the same spiking scheme as the calibration samples and up to four different target concentration brain levels: 2 ng/mL (LQC), 40 ng/mL (MQC), 100 ng/mL (HQC) and 2000 ng/mL. Data collection, peak integration and calculations were performed using MassLynx software, version 2.1.

On to `CCOC(=O)CN1C(=O)COc2cc(C)c(Cl)c(C)c21` [1b], for which the “In blood, prodrug 1b” value runs as follows: (5 min) not above 3 ng/mL; (15 min) not above 3 ng/mL; (30 min) not above 3 ng/mL; (60 min) not above 3 ng/mL. Also, the “In brain, prodrug 1b” value reads like this: (5 min) 2623 ng/g and 2264 ng/g; (15 min) 715 ng/g and 791 ng/g; (30 min) 203 ng/g. Moreover, the “Unbound brain, prodrug 1b” value by setting is: (5 min) 42 ng/g and 36 ng/g; (15 min) 11 ng/g and 13 ng/g; (30 min) 3 ng/g. Further, the concentration at 5 min was 38 ng/g (male, Han Wistar, brain (unbound), 5 min, read-out: Unbound brain, prodrug 1b); 2350 ng/g (male, Han Wistar, brain, 5 min, read-out: In brain, prodrug 1b); not above 3 ng/mL (male, Han Wistar, whole blood, 5 min, read-out: In blood, prodrug 1b). The concentration at 15 min (male, Han Wistar, brain (unbound), 15 min, read-out: Unbound brain, prodrug 1b) turned out to be 13 ng/g; the concentration at 15 min (male, Han Wistar, brain, 15 min, read-out: In brain, prodrug 1b) is 829 ng/g; the concentration at 15 min (male, Han Wistar, whole blood, 15 min, read-out: In blood, prodrug 1b) was not above 3 ng/mL. For the same molecule, the concentration at 30 min is 4 ng/g (male, Han Wistar, brain (unbound), 30 min, read-out: Unbound brain, prodrug 1b); 240 ng/g (male, Han Wistar, brain, 30 min, read-out: In brain, prodrug 1b); not above 3 ng/mL (male, Han Wistar, whole blood, 30 min, read-out: In blood, prodrug 1b). Further, the concentration at 60 min reads like this: (male, Han Wistar, brain, 60 min, read-out: In brain, prodrug 1b) 62 ng/g; (male, Han Wistar, brain, 60 min, read-out: Unbound brain, prodrug 1b) 1 ng/g; (male, Han Wistar, whole blood, 60 min, read-out: In blood, prodrug 1b) not above 3 ng/mL. Moreover, the Tmax (male, Han Wistar, brain, iv, read-out: Time of maximal concentration of 1b in the brain (converted)) is 5 min.

The values are drawn from paper PMC6656724 (Communications Biology, 2019).
